Six compounds from article PMC5015074, “Enhancing Endosomal Escape for Intracellular Delivery of Macromolecular Biologic Therapeutics” (Scientific Reports, 2016) can be followed below.

The subject of data set [1] is GFPβ1-10 expressing H1299 cells. Briefly: live cell split-GFP fluorescence complementation transduction assay (FACS). It is filed as cell-based, human. The following applies: GFPβ1-10 H1299 cells. The procedure: (§1) All transduction experiments were performed in 48-well plates. An optimized protocol was established. First, 15,000 or 20,000 cells were plated in each well. Next day, the indicated peptides were pipetted into microcentrifuge tubes. Transduction buffer (60% OptiMEM and 40% PBS) was added to peptide (100 μl total volume), directly mixed by pipetting up and down five times and then immediately transferred to cells. […] All cells were trypsinized and collected in 250 μl OptiMEM without phenol red and analyzed by FACS (GFP, FSC/SSC). 4,000 viable cells were analyzed per sample. Data is presented as fold change in fluorescence compared to non-treated cells.

Data set [2] concerns GFPβ1-10 expressing MDA-MB-231 breast carcinoma cells. Briefly: split-GFP complementation transduction assay (FACS). It is filed as cell-based, human. As to the method: as §1
Data set [3] deals with GFPβ1-10 expressing HaCaT keratinocytes.
Experimental: (§2) Cell morphology was determined by FACS analysis of FSC and SSC. Gates were set manually for viable cells using untreated control cells as reference and the fraction of viable cells compared to non-viable cells was determined for each sample. Data are presented as the relative difference compared to non-treated control cells. Viable cells per sample were determined by measuring number of viable cells that were analyzed per second by FACS. Gates for viable cells were set manually using untreated control cells as reference. Data are presented as the relative difference compared to untreated control cells.
In data set [4] the test system is GFPβ1-10 expressing MCF7 breast carcinoma cells.
Experimental: as §2
The test system of data set [5] is GFPβ1-10 expressing H1299 cells.
Experimental: as §2
Data set [6] deals with GFPβ1-10 expressing MDA-MB-231 breast carcinoma cells.
Experimental: as §2
Data set [7] concerns GFPβ1-10 expressing HaCaT keratinocytes. Briefly: split-GFP complementation transduction assay (FACS). It is filed as cell-based, human. As to conditions: dose-dependent analysis by FACS, EED peptide compared to parental GFPβ11-(S-S)-TAT, triplicate samples. As to the method:
as §1

The subject of data set [8] is GFPβ1-10 expressing MCF7 breast carcinoma cells. The description is as above. As to conditions: dose-dependent analysis by FACS, EED peptide compared to parental GFPβ11-(S-S)-TAT, triplicate samples. It is filed as cell-based, human. The procedure: as §1
Data set [9] concerns H1299 G1-10 cells. Briefly: macropinocytosis assay (70-kDa neutral dextran-Texas Red uptake, FACS). The data set is classed as cell-based, human. The following applies: 10 μM peptide, 70 min, 70-kDa neutral dextran-Texas Red 100 μg/mL, 37°, triplicate. As to the method:
3,000 H1299 G1-10 cells were plated in a 48-well plate and treated with 10 μM TAT-P6-GG, TAT-P6-GWWG or TAT-P6-GFWFG peptides for 70 min in the presence of 70-kDa neutral dextran-Texas Red (100 μg/mL; Invitrogen) at 37° in triplicate. Cells were washed, trypsinized and analyzed by FACS (>2,000 cells per sample).

With `CCN(CC)CCCC(C)Nc1ccnc2cc(Cl)ccc12` (centres unmarked) [Chloroquine, reference compound], in data set [1] (low concentration of GFPβ11-(S-S)-TAT peptide plus 100 μM Chloroquine), the “increase in GFP fluorescence of GFPβ11-(S-S)-TAT treated cells on addition of Chloroquine” value is recorded as ~ 4 fold.
As to `CCN(c1nc(N)c(C(=O)NC(=N)N)nc1Cl)C(C)C` [EIPA, reference compound], the “effect of macropinocytosis inhibitor on GFP fluorescence from GFPβ11-TAT, in words” value in data set [2] (MDA-MB-231c#G3 pre-treated with 80 μM EIPA, transduced with 60 μM GFPβ11-TAT with 80 μM EIPA for 40 or 80 min, FACS, triplicate) is “reduced GFP fluorescence to near background levels”.
Turning to “GFPβ11-(S-S)-TAT-P6-GFWFG [compound 6, GFPβ11-(S-S)-TAT with PEG6-spaced -GFWFG endosomal escape domain]”, the “cytotoxicity, in words” value in data set [3], in [4] and in [6] was “non-cytotoxic” in each case. Moreover, in [5], the “Cell Viability 15 uM” value was determined as 0.97. Further, the “Cell Viability 30 uM” value in [5] amounted to 0.97. Further, the “Cell Viability 45 uM” value in data set [5] was 0.90. Also, the “GFP complementation fluorescence / endosomal escape, in words” value was “significantly enhanced endosomal escape” in data set [7]; “significantly enhanced endosomal escape” in data set [8]; “significantly enhanced endosomal escape” in data set [2] (MDA-MB-231, dose-dependent analysis by FACS, EED peptide compared to parental GFPβ11-(S-S)-TAT, triplicate samples). Further, in data set [1] (stated in text for Fig. 4b-e), the “increase in GFP fluorescence compared to the parental GFPβ11-(S-S)-TAT peptide” value is on record as “five-fold”.
On to “GFPβ11-(S-S)-TAT-P6-GWGGWG [compound 8, GFPβ11-(S-S)-TAT with PEG6-spaced -GWGGWG endosomal escape domain]”, for which, in data set [5], the “Cell Viability 15 uM” value was 0.96, the “Cell Viability 30 uM” value is reported as 0.98 and the “Cell Viability 45 uM” value is recorded as 0.97. For the same compound, the “enhancement of GFP fluorescence compared to the -GWWG motif, in words” value in data set [1] is “decreased the enhancement significantly”.
GFPβ11-(S-S)-TAT-P6-GWWWG [compound 9]: in data set [5], the “Cell Viability 15 uM” value is 0.96, the “Cell Viability 30 uM” value was found to be 0.42 and the “Cell Viability 45 uM” value is 0.18.
For “TAT-P6-GFWFG [TAT peptide with PEG6-GFWFG endosomal escape domain]”, in [9], the “stimulation of macropinocytosis, in words” value is on record as “stimulate macropinocytosis to a similar extent”.
